This note sets out measurements from patent US9598391B2, “Substituted chroman compounds as calcium sensing receptor modulators” (LUPIN LIMITED, priority 2012, dated 2017).

Counter-ions that a name gives are not always drawn. A value given as a limit tells only on which side of the number the result lay.

This assay deals with T1, Calcium Sensing Receptor (CaSR) (Homo sapiens, UniProt P41180).
T1 construct: expressed in transfected cells
T1 sequence (P41180 20-1078): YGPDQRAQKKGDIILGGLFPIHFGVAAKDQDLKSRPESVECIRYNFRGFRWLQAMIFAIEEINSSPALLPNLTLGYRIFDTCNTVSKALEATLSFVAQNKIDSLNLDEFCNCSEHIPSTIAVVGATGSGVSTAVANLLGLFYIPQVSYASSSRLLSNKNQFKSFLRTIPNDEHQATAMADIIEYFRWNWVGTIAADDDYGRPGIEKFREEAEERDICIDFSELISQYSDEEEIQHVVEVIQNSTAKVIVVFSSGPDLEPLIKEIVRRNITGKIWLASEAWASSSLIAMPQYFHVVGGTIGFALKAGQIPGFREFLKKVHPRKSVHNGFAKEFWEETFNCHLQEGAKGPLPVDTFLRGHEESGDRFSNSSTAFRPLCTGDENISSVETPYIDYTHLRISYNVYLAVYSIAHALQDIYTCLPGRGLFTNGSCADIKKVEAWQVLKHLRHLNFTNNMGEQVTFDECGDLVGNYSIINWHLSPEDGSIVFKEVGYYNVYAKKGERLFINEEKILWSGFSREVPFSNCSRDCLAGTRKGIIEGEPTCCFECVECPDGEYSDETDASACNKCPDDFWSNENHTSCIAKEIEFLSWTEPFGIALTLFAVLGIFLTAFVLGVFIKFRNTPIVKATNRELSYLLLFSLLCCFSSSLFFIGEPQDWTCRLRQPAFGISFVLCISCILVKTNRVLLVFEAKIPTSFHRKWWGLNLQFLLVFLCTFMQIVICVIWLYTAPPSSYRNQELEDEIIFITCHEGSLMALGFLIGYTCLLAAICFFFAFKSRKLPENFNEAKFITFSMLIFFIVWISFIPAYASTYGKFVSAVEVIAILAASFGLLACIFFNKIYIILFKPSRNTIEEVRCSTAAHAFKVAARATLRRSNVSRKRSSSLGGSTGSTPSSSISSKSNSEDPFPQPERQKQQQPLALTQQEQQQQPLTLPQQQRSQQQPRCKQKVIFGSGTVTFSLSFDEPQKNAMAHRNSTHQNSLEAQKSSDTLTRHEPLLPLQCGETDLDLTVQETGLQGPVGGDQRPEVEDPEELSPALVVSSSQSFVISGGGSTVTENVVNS
Nature of the assay: In-vitro assay of calcimimetics through modulation of Calcium Sensing Receptor (intracellular calcium, FLIPR). It counts as cell-based. To be noted: HEK293 cells stably expressing hCaSR, increase in intracellular calcium, Fluo4NW dye, 0.3 mM CaCl2, 8-point assay, read-out: EC50 Range. On the procedure:
In-vitro assay method of Calcimimetics through modulation of Calcium Sensing Receptor (CaSR):
The ability of the compounds to modulate Calcium sensing receptor is determined by measuring an increase in intracellular calcium [Ca^2+]i. Stably transfected HEK293 cells expressing hCaSR_pTriEx-3 hygro vector are developed. Cells are grown overnight on a 96-well plate to 80% confluency in Ham's F12 containing 20% FBS at 37° C., 5% CO2. Subsequently, cells are washed extensively with 20 mM HEPES buffer containing 126 mM […], 1 mM MgCl2 and 4 mM KCl to remove serum components that might interfere with the assay. Cells are loaded with calcium sensing Fluo4NW dye in HEPES base buffer containing 0.1% BSA and 1 mg/ml glucose for 30 minutes to measure changes in intracellular calcium. The activities of the compounds are measured in FLIPR using 0.3 mM CaCl2 in 20 mM HEPES base buffer. The effectiveness of the compound to modulate receptor activity is determined by calculating the EC50 responses for that compound in an 8-point assay and plotted using GraphPad Prism 5.
In general, EC50 refers to the midpoint of the concentration-response curve. Consider `COc1cc([C@@H](C)NC[C@H]2C[C@@H](c3ccc(C)c(C(=O)O)c3)c3ccccc3O2)ccc1F` [Example 116, 5-((2R,4S)-2-((((R)-1-(4-Fluoro-3-methoxyphenyl)ethyl)amino)methyl)chroman-4-yl)-2-methyl benzoic acid hydrochloride], for which the concentration giving a half-maximal response (EC50) was 50 to 200 nM.

Consider `C[C@@H](NC[C@H]1C[C@H](c2ccc(C(=O)O)cc2)c2ccccc2O1)c1cccc2ccccc12` [Example 98a, 4-((2R,4R)-2-((((R)-1-(Naphthalen-1-yl)ethyl)amino)methyl)chroman-4-yl)benzoic acid hydrochloride], for which the EC50 was 50 to 200 nM. For the compound `C[C@@H](NC[C@H]1C[C@@H](c2ccc(F)c(OCC(=O)O)c2)c2ccccc2O1)c1cccc2ccccc12` [Example 93b, 2-(2-Fluoro-5-((2R,4S)-2-((((R)-1-(naphthalen-1-yl)ethyl)amino)methyl)chroman-4-yl)phenoxy)acetic acid hydrochloride], the EC50 was less than 20 nM.

Consider `C[C@@H](NC[C@H]1C[C@@H](c2ccc(C(=O)O)c(F)c2)c2ccccc2O1)c1cccc2ccccc12` [Example 104, 2-Fluoro-4-((2R,4S)-2-((((R)-1-(naphthalen-1-yl)ethyl)amino)methyl)chroman-4-yl)benzoic acid hydrochloride], for which the EC50 is less than 20 nM.

With `Cc1ccc([C@@H]2C[C@H](CN[C@H](C)c3ccc(F)c4ccccc34)Oc3ccccc32)cc1C(=O)O` [Example 119b, 5-((2R,4S)-2-((((R)-1-(4-Fluoronaphthalen-1-yl)ethyl)amino)methyl)chroman-4-yl)-2-methyl benzoic acid hydrochloride], the EC50 was less than 20 nM.

Take `COc1cc([C@@H](C)NC[C@H]2C[C@@H](c3ccc(C(=O)O)c(C)c3)c3ccccc3O2)ccc1F` [Example 114, 4-((2R,4S)-2-((((R)-1-(4-Fluoro-3-methoxyphenyl)ethyl)amino)methyl)chroman-4-yl)-2-methylbenzoic acid hydrochloride]: the concentration giving a half-maximal response (EC50) lay within 50 to 200 nM.

As for `Cc1ccc([C@@H]2C[C@H](CCN[C@H](C)c3cccc4ccccc34)Oc3ccccc32)cc1C(=O)O` [Example 124, 2-Methyl-5-((2R,4S)-2-(2-(((R)-1-(naphthalen-1-yl)ethyl)amino)ethyl)chroman-4-yl)benzoic acid hydrochloride], the EC50 was less than 20 nM.
